From ChEMBL document CHEMBL3885881, “DrugMatrix”

Species: Rattus norvegicus
Experiment: DrugMatrix - Regimen: Daily Repeat
Type: toxicity, organism-based, Sprague-Dawley
Design: regimen Daily Repeat, gender Male, age 6-8 weeks
Details: in vivo, po, route oral GAVAGE, […]; for ABSOLUTE BASOPHIL / ABSOLUTE EOSINOPHIL / ABSOLUTE LYMPHOCYTE / ABSOLUTE MONOCYTE / ABSOLUTE SEGMENTED NEUTROPHIL / BASOPHIL / EOSINOPHIL / ERYTHROCYTE COUNT / HEMATOCRIT / HEMOGLOBIN / LEUKOCYTE COUNT / LYMPHOCYTE / MEAN CORPUSCULAR HEMOGLOBIN / MEAN CORPUSCULAR HEMOGLOBIN CONCENTRATION / MEAN CORPUSCULAR VOLUME / MONOCYTE / NEUTROPHIL / NUCLEATED RED BLOOD CELLS / PLATELET COUNT: tissue Blood
[1] = 0 mg/kg, 72 h, dose level Control, time 3 day
[2] = 0 mg/kg, 72 h, tissue Plasma, dose level Control, time 3 day
[3] = 0 mg/kg, 120 h, dose level Control, time 5 day
[4] = 0 mg/kg, 120 h, tissue Plasma, dose level Control, time 5 day
[5] = 0.3 mg/kg, 72 h, dose level Low, time 3 day
[6] = 0.3 mg/kg, 72 h, tissue Plasma, dose level Low, time 3 day

For C[C@]12CC[C@@H]3c4ccc(O)cc4CC[C@H]3[C@@H]1CC[C@@H]2O [ESTRADIOL], the “ABSOLUTE BASOPHIL” value [1] was 0 CELLS/uL, the “ABSOLUTE EOSINOPHIL” value [1] was 41.83 CELLS/uL and the “ABSOLUTE LYMPHOCYTE” value [1] was 8545.5 CELLS/uL. The “ABSOLUTE MONOCYTE” value [1] was 240 CELLS/uL, the “ABSOLUTE SEGMENTED NEUTROPHIL” value [1] was 906 CELLS/uL and the BASOPHIL [1] was 0%. For the same molecule, the EOSINOPHIL [1] was 0.33%, the “ERYTHROCYTE COUNT” value [1] was 5.6 x10E6/uL and the HEMATOCRIT [1] was 35.4%. The HEMOGLOBIN [1] was 13.42 G/DL, the “LEUKOCYTE COUNT” value [1] was 9.73 x10E3/uL and the LYMPHOCYTE [1] was 87.83%. The “MEAN CORPUSCULAR HEMOGLOBIN” value [1] was 23.98 pg, the “MEAN CORPUSCULAR HEMOGLOBIN CONCENTRATION” value [1] was 37.92 G/DL and the “MEAN CORPUSCULAR VOLUME” value [1] was 63.3 fL. The MONOCYTE [1] was 2.5%, the NEUTROPHIL [1] was 9.33% and the “NUCLEATED RED BLOOD CELLS” value [1] was 0 /100WBC. The “PLATELET COUNT” value [1] was 1032 x10E3/uL, the “ALANINE AMINOTRANSFERASE” value [2] was 72.83 u/L and the ALBUMIN [2] was 4 G/DL. For the same molecule, the “ALKALINE PHOSPHATASE” value [2] was 322.83 u/L, the “ASPARTATE AMINOTRANSFERASE” value [2] was 102.67 u/L and the “BLOOD UREA NITROGEN” value [2] was 12 mg/dL. For the same molecule, the “CARBON DIOXIDE” value [2] was 34.33 mmol/L, the CHLORIDE [2] was 97.67 MEQ/L and the CHOLESTEROL [2] was 82.5 mg/dL. For the same molecule, the “CREATINE PHOSPHOKINASE” value [2] was 410.33 u/L, the CREATININE [2] was 0.18 mg/dL and the GLUCOSE [2] was 164.5 mg/dL. For the same molecule, the “LACTATE DEHYDROGENASE” value [2] was 119.5 u/L, the LIPASE [2] was 11.83 u/L and the PHOSPHORUS [2] was 9.52 mg/dL. For the same molecule, the POTASSIUM [2] was 5.56 MEQ/L, the SODIUM [2] was 142.48 MEQ/L and the “TOTAL BILIRUBIN” value [2] was 0.18 mg/dL. The “TOTAL PROTEIN” value [2] was 5.77 G/DL, the “URIC ACID” value [2] was 0.48 mg/dL and the “ABSOLUTE BASOPHIL” value [3] was 0 CELLS/uL. The “ABSOLUTE EOSINOPHIL” value [3] was 0 CELLS/uL, the “ABSOLUTE LYMPHOCYTE” value [3] was 9065 CELLS/uL and the “ABSOLUTE MONOCYTE” value [3] was 341.33 CELLS/uL. For the same molecule, the “ABSOLUTE SEGMENTED NEUTROPHIL” value [3] was 527 CELLS/uL, the BASOPHIL [3] was 0% and the EOSINOPHIL [3] was 0%. The “ERYTHROCYTE COUNT” value [3] was 5.25 x10E6/uL, the HEMATOCRIT [3] was 34.08% and the HEMOGLOBIN [3] was 13.5 G/DL. For the same molecule, the “LEUKOCYTE COUNT” value [3] was 9.93 x10E3/uL, the LYMPHOCYTE [3] was 91.17% and the “MEAN CORPUSCULAR HEMOGLOBIN” value [3] was 25.7 pg. The “MEAN CORPUSCULAR HEMOGLOBIN CONCENTRATION” value [3] was 39.62 G/DL, the “MEAN CORPUSCULAR VOLUME” value [3] was 64.93 fL and the MONOCYTE [3] was 3.33%. For the same molecule, the NEUTROPHIL [3] was 5.5%, the “NUCLEATED RED BLOOD CELLS” value [3] was 0 /100WBC and the “PLATELET COUNT” value [3] was 1077.5 x10E3/uL. For the same molecule, the “ALANINE AMINOTRANSFERASE” value [4] was 57.83 u/L, the “ALKALINE PHOSPHATASE” value [4] was 319.17 u/L and the “ASPARTATE AMINOTRANSFERASE” value [4] was 83.33 u/L. For the same molecule, the “BLOOD UREA NITROGEN” value [4] was 13.67 mg/dL, the “CARBON DIOXIDE” value [4] was 30.83 mmol/L and the CHLORIDE [4] was 98.33 MEQ/L. The CHOLESTEROL [4] was 64.83 mg/dL, the “CREATINE PHOSPHOKINASE” value [4] was 263.67 u/L and the CREATININE [4] was 0.2 mg/dL. For the same molecule, the GLUCOSE [4] was 182.83 mg/dL, the “LACTATE DEHYDROGENASE” value [4] was 124 u/L and the LIPASE [4] was 10.5 u/L. The PHOSPHORUS [4] was 10 mg/dL, the POTASSIUM [4] was 5.78 MEQ/L and the SODIUM [4] was 142.48 MEQ/L. For the same molecule, the “TOTAL BILIRUBIN” value [4] was 0.2 mg/dL, the “TOTAL PROTEIN” value [4] was 6 G/DL and the “URIC ACID” value [4] was 0.7 mg/dL. The “ABSOLUTE BASOPHIL” value [5] was 0 CELLS/uL, the “ABSOLUTE EOSINOPHIL” value [5] was 0 CELLS/uL and the “ABSOLUTE LYMPHOCYTE” value [5] was 8342 CELLS/uL. For the same molecule, the “ABSOLUTE MONOCYTE” value [5] was 154.33 CELLS/uL, the “ABSOLUTE SEGMENTED NEUTROPHIL” value [5] was 637 CELLS/uL and the BASOPHIL [5] was 0%. The EOSINOPHIL [5] was 0%, the “ERYTHROCYTE COUNT” value [5] was 5.44 x10E6/uL and the HEMATOCRIT [5] was 33.83%. For the same molecule, the HEMOGLOBIN [5] was 13.07 G/DL, the “LEUKOCYTE COUNT” value [5] was 9.13 x10E3/uL and the LYMPHOCYTE [5] was 91.67%. For the same molecule, the “MEAN CORPUSCULAR HEMOGLOBIN” value [5] was 24.07 pg, the “MEAN CORPUSCULAR HEMOGLOBIN CONCENTRATION” value [5] was 38.63 G/DL and the “MEAN CORPUSCULAR VOLUME” value [5] was 62.23 fL. For the same molecule, the MONOCYTE [5] was 1.67%, the NEUTROPHIL [5] was 6.67% and the “NUCLEATED RED BLOOD CELLS” value [5] was 0 /100WBC. The “PLATELET COUNT” value [5] was 824 x10E3/uL, the “ALANINE AMINOTRANSFERASE” value [6] was 57.33 u/L and the “ALKALINE PHOSPHATASE” value [6] was 430 u/L. For the same molecule, the “ASPARTATE AMINOTRANSFERASE” value [6] was 82.67 u/L, the “BLOOD UREA NITROGEN” value [6] was 13.67 mg/dL and the “CARBON DIOXIDE” value [6] was 34 mmol/L. For the same molecule, the CHLORIDE [6] was 97.67 MEQ/L, the CHOLESTEROL [6] was 68 mg/dL and the “CREATINE PHOSPHOKINASE” value [6] was 290.33 u/L. The CREATININE [6] was 0.16 mg/dL, the GLUCOSE [6] was 175 mg/dL and the “LACTATE DEHYDROGENASE” value [6] was 124 u/L. It also gave an LIPASE [6] of 11 u/L, a PHOSPHORUS [6] of 9.93 mg/dL and a POTASSIUM [6] of 5.76 MEQ/L. The SODIUM [6] was 142.13 MEQ/L, the “TOTAL BILIRUBIN” value [6] was 0.23 mg/dL and the “URIC ACID” value [6] was 0.37 mg/dL.
